Data as given in patent publication US20170209445A1, “KINASE INHIBITORS” (Respivert Limited, priority 2014, published 2017).

What was measured:
Lck = molecular target: T1, Lck (Homo sapiens, UniProt P06239); assay: KINOMEscan dissociation constant, Lck; assay type: binding
T1 construct: purchased DiscoveRx Corporation (LeadHunter Discover Services, KINOMEscan)
Procedure: (§1) Kinase enzyme binding activities of compounds disclosed herein may be determined using a proprietary assay which measures active site-directed competition binding to an immobilized ligand (Fabian, M. A. et al., Nature Biotechnol., 2005, 23:329-336). These assays may be conducted by DiscoverX (formerly Ambit; San Diego, Calif.). The percentage inhibition produced by incubation with a test compound may be calculated relative to the non-inhibited control.

p38 MAPKα [1] = molecular target: T2, p38 MAPKα (Homo sapiens, UniProt Q16539); assay: KINOMEscan dissociation constant, p38 MAPKα; assay type: binding
T2 construct: purchased Invitrogen
T2 sequence (Q16539 whole entry): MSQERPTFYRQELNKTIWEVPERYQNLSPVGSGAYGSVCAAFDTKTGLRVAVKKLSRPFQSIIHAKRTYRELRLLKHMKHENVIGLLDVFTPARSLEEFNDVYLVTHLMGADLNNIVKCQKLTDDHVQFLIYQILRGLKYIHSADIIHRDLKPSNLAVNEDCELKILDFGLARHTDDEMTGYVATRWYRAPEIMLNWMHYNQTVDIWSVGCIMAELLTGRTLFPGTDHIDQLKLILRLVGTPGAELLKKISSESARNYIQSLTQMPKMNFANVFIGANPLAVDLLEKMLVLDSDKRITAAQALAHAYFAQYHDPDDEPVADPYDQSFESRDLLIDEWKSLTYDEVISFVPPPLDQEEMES
Procedure: as §1

Syk [2] = molecular target: T3, Syk (Homo sapiens, UniProt P43405); assay: KINOMEscan dissociation constant, Syk; assay type: binding
T3 construct: purchased Invitrogen
Procedure: as §1

p38 MAPKα [3] = molecular target: T2, p38 MAPKα; assay: p38 MAPKα enzyme inhibition (Method 2), FRET Z-LYTE; assay type: biochemical
Procedure: (§2) The enzyme inhibitory activities of compounds disclosed herein are determined by FRET using synthetic peptides labelled with both donor and acceptor fluorophores (Z-LYTE, Invitrogen Ltd., Paisley, UK).
The inhibitory activities of test compounds against the p38 MAPKα isoform (MAPK14: Invitrogen), are evaluated indirectly by determining the level of activation/phosphorylation of the down-stream molecule, MAPKAP-K2. The p38 MAPKα protein (80 ng/mL, 2.5 μL) is mixed with the test compound (2.5 μL of either 4 μg/mL, 0.4 μg/mL, 0.04 μg/mL or 0.004 μg/mL) for 2 hr at RT. […] The mixture is incubated for 1 hr at RT. Development reagent (protease, 5 μL) is added for 1 hr prior to detection in a fluorescence microplate reader (Varioskan® Flash, ThermoFisher Scientific).
This method follows the same steps as Method 1 above, but utilises a higher concentration of the p38 MAPKα protein (2.5 μL of 200 ng/mL protein instead of 2.5 μL of 80 ng/mL protein) for mixing with the test compound.
(§3) In all cases, the site-specific protease cleaves non-phosphorylated peptide only and eliminates the FRET signal. Phosphorylation levels of each reaction are calculated using the ratio of coumarin emission (donor) over fluorescein emission (acceptor), for which high ratios indicate high phosphorylation and low ratios indicate low phosphorylation levels.

c-Src = molecular target: T4, c-Src (Homo sapiens, UniProt P12931); assay: c-Src enzyme inhibition, FRET Z-LYTE; assay type: biochemical
T4 construct: purchased Invitrogen
T4 sequence (P12931 whole entry): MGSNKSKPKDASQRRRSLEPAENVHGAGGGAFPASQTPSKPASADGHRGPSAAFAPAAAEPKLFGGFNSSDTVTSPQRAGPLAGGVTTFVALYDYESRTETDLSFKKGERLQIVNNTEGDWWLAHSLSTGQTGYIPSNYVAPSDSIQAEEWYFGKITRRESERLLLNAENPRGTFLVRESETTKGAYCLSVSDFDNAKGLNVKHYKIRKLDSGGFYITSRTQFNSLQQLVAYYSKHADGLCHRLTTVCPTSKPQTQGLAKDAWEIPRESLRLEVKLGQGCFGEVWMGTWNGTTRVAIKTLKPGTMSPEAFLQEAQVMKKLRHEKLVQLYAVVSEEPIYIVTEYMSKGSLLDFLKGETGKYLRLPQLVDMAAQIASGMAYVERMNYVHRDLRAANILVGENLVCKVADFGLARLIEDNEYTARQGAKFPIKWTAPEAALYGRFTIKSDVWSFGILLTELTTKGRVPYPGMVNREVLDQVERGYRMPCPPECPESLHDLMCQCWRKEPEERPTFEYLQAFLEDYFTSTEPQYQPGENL
Procedure: as §2
(§4) The inhibitory activities of compounds of the invention against c-Src and Syk enzymes (Invitrogen), are evaluated in a similar fashion to that described hereinabove. The relevant enzyme (3000 ng/mL or 2000 ng/mL respectively, 2.5 μL) is incubated with the test compound (either 4 μg/mL, 0.4 μg/mL, 0.04 μg/mL, or 0.004 μg/mL, 2.5 μL each) for 2 hr at RT. The FRET peptides (8 μM, 2.5 μL), and appropriate ATP solutions (2.5 μL, 800 μM for c-Src, and 60 μM ATP for Syk) are then added to the enzymes/compound mixtures and incubated for 1 hr. Development reagent (protease, 5 μL) is added for 1 hr prior to detection in a fluorescence microplate reader (Varioskan® Flash, ThermoFisher Scientific).
as §3

Syk [4] = molecular target: T3, Syk; assay: Syk enzyme inhibition, FRET Z-LYTE; assay type: biochemical
Procedure: as §2, §4, §3

GSK3α = molecular target: T5, GSK3α (Homo sapiens, UniProt P49840); assay: GSK3α enzyme inhibition (Method 2), FRET Z-LYTE; assay type: biochemical
T5 construct: purchased Invitrogen
T5 sequence (P49840 whole entry): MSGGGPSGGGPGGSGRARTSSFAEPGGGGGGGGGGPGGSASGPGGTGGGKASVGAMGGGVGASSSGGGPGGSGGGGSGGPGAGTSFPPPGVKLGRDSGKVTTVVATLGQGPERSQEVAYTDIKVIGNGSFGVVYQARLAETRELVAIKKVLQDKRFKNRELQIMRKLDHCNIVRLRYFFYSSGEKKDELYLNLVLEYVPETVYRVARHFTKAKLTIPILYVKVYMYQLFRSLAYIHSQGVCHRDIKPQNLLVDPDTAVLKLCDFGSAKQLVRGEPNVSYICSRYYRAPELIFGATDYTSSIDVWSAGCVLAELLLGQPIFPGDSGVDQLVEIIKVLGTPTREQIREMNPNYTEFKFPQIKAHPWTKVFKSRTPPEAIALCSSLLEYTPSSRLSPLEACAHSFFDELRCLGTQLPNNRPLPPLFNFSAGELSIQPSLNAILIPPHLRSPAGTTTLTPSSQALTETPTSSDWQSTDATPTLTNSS
Procedure: as §2
The inhibitory activities of compounds of the invention against the GSK 3α enzyme isoform (Invitrogen), are evaluated by determining the level of activation/phosphorylation of the target peptide. The GSK3-α protein (500 ng/mL, 2.5 μL) is mixed with the test compound (2.5 μL at either 4 μg/mL, 0.4 μg/mL, 0.04 μg/mL, or 0.004 μg/mL) for 2 hr at RT. The FRET peptide (8 μM, 2.5 μL), which is a phosphorylation target for GSK3α, and ATP (40 μM, 2.5 μL) are then added to the enzyme/compound mixture and the resulting mixture incubated for 1 hr. Development reagent (protease, 5 μL) is added for 1 hr prior to detection in a fluorescence microplate reader (Varioskan® Flash, ThermoFisher Scientific).
as §3
This method follows the same steps as Method 1 above, but utilises a shorter period of mixing of the test compound (105 minutes instead of 2 hours) with the GSK3-α protein.

PBMCs [5] = assay: LPS-induced IL-8 release in PBMC cells; assay type: cell-based; details: Homo sapiens, LPS-stimulated PBMCs, read-out: IC50 Values for Inhibition of Cytokine Release PBMCs IL-8
How it was run: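 Healthy-donor PBMCs isolated by density gradient were pretreated with compound for 2 h, then stimulated with 1 ng/mL LPS (E. coli 0111:B4) for 24 h at 37° C., 5% CO2. IL-8 and TNFα in supernatants measured by sandwich ELISA.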

PBMCs [6] = assay: IL-2 release in CD3/CD28 stimulated PBMC cells; assay type: cell-based; details: Homo sapiens, read-out: IC50 Values for Inhibition of Cytokine Release PBMCs IL-2
Procedure: (§5) PBMCs from healthy subjects are separated from whole blood using a density gradient (Lymphoprep, Axis-Shield Healthcare). Cells are added to a 96 well plate pre-coated with a mixture of CD3/CD28 monoclonal antibodies (0.3 μg/mL eBioscience and 3 μg/mL BD Pharmingen respectively). Compound at the desired concentration is then added to the wells and the plate left for 3 days under normal tissue culture conditions. Supernatants are harvested and IL-2 and IFN gamma release determined by Sandwich ELISA (Duo-set, R&D System). The IC50 is determined from the dose response curve.

PBMCs [7] = assay: IFN gamma release in CD3/CD28 stimulated PBMC cells; assay type: cell-based; details: Homo sapiens, read-out: IC50 Values for Inhibition of Cytokine Release PBMCs IFNγ
Procedure: as §5

HT29 cells = assay: IL-1β-induced IL-8 release in HT29 cells; assay type: cell-based; details: Homo sapiens, HT-29; IL-1β-stimulated HT29 cells; read-out: IC50 Values for Inhibition of Cytokine Release HT29 cells IL-8
Procedure: HT29 cells, a human colon adenocarcinoma cell line, are plated in a 96 well plate (24 hrs) and pre-treated with compounds at the desired concentration for 2 hours before addition of 5 ng/mL of IL-1β (Abcam) for 24 hours. Supernatants are harvested for IL-8 quantification by Sandwich ELISA (Duo-set, R&D System). The IC50 is determined from the dose response curve.

[8] = Hydrolytic stability study; assay type: physicochemical; details: DMSO/water (3:1), 1 mg/mL, experiment in which Example 2 was tested
Procedure: Chemical stability of compounds of the invention was assessed in a mixture of DMSO and water (3:1) at a test compound concentration of 1 mg/mL
General HPLC Procedure • Agilent, Waters X-Select C18, 2.5 μm, 4.6×30 mm column, 4 min method, 5-95% • MeCN/water (0.1% formic acid). • Flow rate 2.5 ml/min. • Column Oven Temperature 40° C. • Detection 254 nm.
Sample Preparation • A 1.0 mg sample of test compound was dissolved in 1 mL of DMSO/water (3:1) and the resulting mixture was stirred at rt overnight.
Recording Stability • A 50 μL aliquot of the test solution was removed and analysed in duplicate by 5 μL HPLC injections. The peak area for the test compound (taken to be 100% product, 0% degradation) was recorded following manual integration of the corresponding UV trace. The area retention time was also recorded. • The test solution was heated to 60° C. internal temperature (65° C. block temperature), with stirring, and timing commenced once the target temperature had been reached. After 5 and 24 h, samples were removed and analysed by HPLC (5 μL injections). In all cases, 5 μL injections were used and the samples analysed in duplicate. • The peak areas for the test compounds were recorded at both subsequent timepoints and the % decomposition calculated from the % change in peak area over time.

T1 sequence (P06239 whole entry): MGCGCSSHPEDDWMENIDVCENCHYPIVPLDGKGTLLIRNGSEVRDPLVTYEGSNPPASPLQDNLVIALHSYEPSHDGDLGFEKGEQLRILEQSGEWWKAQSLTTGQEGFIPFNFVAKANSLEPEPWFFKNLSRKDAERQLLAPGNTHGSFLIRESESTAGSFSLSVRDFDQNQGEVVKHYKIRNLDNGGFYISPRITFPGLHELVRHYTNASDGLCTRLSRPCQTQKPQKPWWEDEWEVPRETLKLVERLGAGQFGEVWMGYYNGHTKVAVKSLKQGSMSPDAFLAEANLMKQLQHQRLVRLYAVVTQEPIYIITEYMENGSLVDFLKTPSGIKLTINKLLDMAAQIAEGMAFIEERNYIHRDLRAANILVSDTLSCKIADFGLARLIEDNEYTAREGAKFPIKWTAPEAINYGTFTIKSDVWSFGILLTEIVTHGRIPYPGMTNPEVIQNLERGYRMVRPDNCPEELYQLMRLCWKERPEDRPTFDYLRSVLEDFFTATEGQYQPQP

COCCOCCOCCOc1cc(Nc2ncc3cc(-c4cc(C(=O)Nc5cc(C(C)(C)C)cc(NS(C)(=O)=O)c5OC)ccc4C)ccc3n2)cc(OC)c1 [Example 2, N-(5-(tert-Butyl)-2-methoxy-3-(methylsulfonamido)phenyl)-3-(2-((3-methoxy-5-(2-(2-(2-methoxyethoxy)ethoxy)ethoxy)phenyl)amino)quinazolin-6-yl)-4-methylbenzamide]
Kd (Lck): 13 nM
Kd (p38 MAPKα [1]): 15 nM
Kd (Syk [2]): 68 nM
IC50 (p38 MAPKα [3]): 32 nM
IC50 (c-Src): 27 nM
IC50 (Syk [4]): > 1250 nM
IC50 (GSK3α): > 12500 nM
IC50 (PBMCs [5]): 26 nM
IC50 (PBMCs [6]): 126 nM
IC50 (PBMCs [7]): 53.3 nM
IC50 (HT29 cells): 78.7 nM
% Parent Remaining ([8]; 60° C., 300 min): 104.2%
% Parent Remaining ([8]; 60° C., 1440 min): 102.9%
% Parent Remaining ([8]; time 0 min): 100%
